Assay results from patent publication US20150232420A1, “TRANSGLUTAMINASE TG2 INHIBITORS, PHARMACEUTICAL COMPOSITIONS, AND METHODS OF USE THEREOF” (priority 2012, published 2015).

Biological target: T1, human TG2 (Homo sapiens, UniProt P21980)
T1 sequence (P21980 1-687): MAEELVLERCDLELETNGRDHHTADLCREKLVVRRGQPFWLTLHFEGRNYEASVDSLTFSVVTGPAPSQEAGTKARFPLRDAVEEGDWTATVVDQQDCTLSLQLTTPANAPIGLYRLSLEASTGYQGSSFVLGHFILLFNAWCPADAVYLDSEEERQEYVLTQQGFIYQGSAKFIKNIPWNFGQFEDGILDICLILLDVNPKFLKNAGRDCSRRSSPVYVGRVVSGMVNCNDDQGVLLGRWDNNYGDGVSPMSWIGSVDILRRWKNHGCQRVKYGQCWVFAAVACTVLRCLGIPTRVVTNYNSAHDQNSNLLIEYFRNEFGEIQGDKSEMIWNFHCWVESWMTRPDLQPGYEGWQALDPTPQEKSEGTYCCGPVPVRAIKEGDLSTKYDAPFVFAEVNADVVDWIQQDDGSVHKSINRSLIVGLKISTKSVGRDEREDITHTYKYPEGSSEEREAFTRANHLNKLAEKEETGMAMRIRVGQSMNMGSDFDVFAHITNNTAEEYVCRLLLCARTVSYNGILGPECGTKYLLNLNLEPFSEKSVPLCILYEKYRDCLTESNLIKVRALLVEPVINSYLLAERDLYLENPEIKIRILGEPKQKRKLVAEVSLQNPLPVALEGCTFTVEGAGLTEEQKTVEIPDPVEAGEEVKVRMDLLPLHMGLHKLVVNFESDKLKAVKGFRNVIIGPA
Test: fluorescent screening assay for human TG2
Assay type: biochemical
Conditions: Table 7; 20 nM TG2, 37° C.; read-out: IC50
Experimental: The fluorescent screening assay for human TG2 was performed as described herein: Assay conditions were 20 nM TG2, 8 μM N,N-dimethylated Casein (NMC) and 16 μM K×D (used for all transglutaminase assays) in 25 mM Hepes, pH 7.4, 250 mM NaCl, 2 mM MgCl2, 0.5 mM CaCl2, 0.2 mM DTT, 0.05% Pluronic F-127 at 37° C. A time point was taken with a microplate reader (Safire or Ultra, Tecan; ex: 350 nm, em: 535 nm) every 3 minutes for up to 2 hours and the initial linear reaction progress was used to determine the reaction velocity as a measure for enzyme activity. Assay conditions were identical for human TG6 and similar for human TG1 and mouse TG2 apart from enzyme concentration (mTG2 at 5 nM; TG1 at 10 nM) and CaCl2 concentration (0.2 mM for mTG2; 0.05 mM for TG1). Factor XIIIa was activated using 0.1 μg/μl thrombin (Sigma) in 35 mM Tris pH 8.0 for 20 min at 30° C. and the transamidation reaction was performed with 20 nM Factor XIIIa in 50 mM Tris pH 8.0, 1.25 mM CaCl2, 0.05% Pluronic, 0.2 mM DTT. TG3 was activated with 0.02 μg/μl thrombin under the same conditions as Factor XIIIa and assay conditions were 10 nM TG3 in 50 mM Hepes, pH 8, 20 mM CaCl2, 0.2 mM DTT, 0.05% Pluronic F-127.

| IC50 [nM] | SMILES |
| --- | --- |
| 1000 to 100000 | C=CC(=O)NCCC1C[C@@H](C(=O)OC)N(C(=O)OC(C)(C)C)C1 (stereo partly drawn) [1-tert-butyl 2-methyl (2S)-4-[2-(prop-2-enamido)ethyl]pyrrolidine-1,2-dicarboxylate] |
| 1000 to 100000 | C=CC(=O)NCCCC[C@@H](NC(=O)OCc1ccccc1)C(=O)O [(2R)-2-{[(benzyloxy)carbonyl]amino}-6-(prop-2-enamido)hexanoic acid] |
| 1000 to 100000 | C=CC(=O)NCCCC[C@H](NC(=O)OCc1c(F)cccc1F)C(=O)O [(2S)-2-({[(2,6-difluorophenyl)methoxy]carbonyl}amino)-6-(prop-2-enamido)hexanoic acid] |
| 1000 to 100000 | C=CC(=O)NCCCC[C@H](NC(=O)OCc1ccc(F)cc1Cl)C(=O)O [(2S)-2-({[(2-chloro-4-fluorophenyl)methoxy]carbonyl}amino)-6-(prop-2-enamido)hexanoic acid] |
| 1000 to 100000 | C=CC(=O)NCCCC[C@H](NC(=O)OCc1ccccc1Cl)C(=O)O [(2S)-2-({[(2-chlorophenyl)methoxy]carbonyl}amino)-6-(prop-2-enamido)hexanoic acid] |
| 1000 to 100000 | C=CC(=O)NCCCC[C@H](NC(=O)OCc1ccc(CCCC)cc1)C(=O)O [(2S)-2-({[(4-butylphenyl)methoxy]carbonyl}amino)-6-(prop-2-enamido)hexanoic acid] |
| 1000 to 100000 | C=CC(=O)NCCCC[C@H](NC(=O)OCc1ccc(F)cc1)C(=O)O [(2S)-2-({[(4-fluorophenyl)methoxy]carbonyl}amino)-6-(prop-2-enamido)hexanoic acid] |
| 1000 to 100000 | C=CC(=O)NCCCC[C@H](NC(=O)OCc1ccc(C)cc1)C(=O)O [(2S)-2-({[(4-methylphenyl)methoxy]carbonyl}amino)-6-(prop-2-enamido)hexanoic acid] |
| 1000 to 100000 | C=CC(=O)NCCCC[C@H](NC(=O)OCc1ccc([N+](=O)[O-])cc1)C(=O)O [(2S)-2-({[(4-nitrophenyl)methoxy]carbonyl}amino)-6-(prop-2-enamido)hexanoic acid] |
| 1000 to 100000 | C=CC(=O)NCCCC[C@H](NC(=O)OCc1ccc(C(C)(C)C)cc1)C(=O)O [(2S)-2-({[(4-tert-butylphenyl)methoxy]carbonyl}amino)-6-(prop-2-enamido)hexanoic acid] |
| 1000 to 100000 | C=CC(=O)NCCCC[C@H](NC(=O)OC)C(=O)O [(2S)-2-[(methoxycarbonyl)amino]-6-(prop-2-enamido)hexanoic acid] |
| 1000 to 100000 | C=CC(=O)NCCCC[C@H](NC(=O)OCC1c2ccccc2-c2ccccc21)C(=O)O [(2S)-2-{[(9H-fluoren-9-ylmethoxy)carbonyl]amino}-6-(prop-2-enamido)hexanoic acid] |
| 1000 to 100000 | C=CC(=O)Nc1ccc(C[C@H](NC(=O)OCc2ccccc2)C(=O)O)cc1 [(2S)-2-{[(benzyloxy)carbonyl]amino}-3-[4-(prop-2-enamido)phenyl]propanoic acid] |
| 1000 to 100000 | C=CC(=O)NCCCC[C@H](NC(=O)OCc1ccccc1)C(=O)O [(2S)-2-{[(benzyloxy)carbonyl]amino}-6-(prop-2-enamido)hexanoic acid] |
| 1000 to 100000 | C=CC(=O)NCCCC[C@H](NC(=O)OCc1cccc2ccccc12)C(=O)O [(2S)-2-{[(naphthalen-1-ylmethoxy)carbonyl]amino}-6-(prop-2-enamido)hexanoic acid] |
| 1000 to 100000 | C=CC(=O)NCCCC[C@H](NC(=O)OCc1ccc2ccccc2c1)C(=O)O [(2S)-2-{[(naphthalen-2-ylmethoxy)carbonyl]amino}-6-(prop-2-enamido)hexanoic acid] |
| 1000 to 100000 | C=CC(=O)NCCCC[C@H](NC(=O)OCc1ccccc1C(F)(F)F)C(=O)O [(2S)-6-(prop-2-enamido)-2-[({[2-(trifluoromethyl)phenyl]methoxy}carbonyl)amino]hexanoic acid] |

| IC50 [nM] | SMILES |
| --- | --- |
| 1000 to 100000 | C=CC(=O)NCCCC[C@H](NC(=O)OCc1cccc(C(F)(F)F)c1)C(=O)O [(2S)-6-(prop-2-enamido)-2-[({[3-(trifluoromethyl)phenyl]methoxy}carbonyl)amino]hexanoic acid] |
| 1000 to 100000 | C=CC(=O)NCCCC[C@H](NC(=O)OCc1ccc(C(F)(F)F)cc1)C(=O)O [(2S)-6-(prop-2-enamido)-2-[({[4-(trifluoromethyl)phenyl]methoxy}carbonyl)amino]hexanoic acid] |
| 100 to 1000 | C=CC(=O)NCCCC[C@H](NC(C)=O)C(=O)N1CCN(c2cccc(C)n2)CC1 [N-[(5S)-5-acetamido-6-[4-(6-methylpyridin-2-yl)piperazin-1-yl]-6-oxohexyl]prop-2-enamide] |
| 1000 to 100000 | C=CC(=O)NCCCC[C@H](NC(=O)c1ccc2ccccc2c1)C(=O)N1CCN(c2cccc(C)n2)CC1 [N-[(5S)-6-[4-(6-methylpyridin-2-yl)piperazin-1-yl]-5-(naphthalen-2-ylformamido)-6-oxohexyl]prop-2-enamide] |
| 100 to 1000 | C=CC(=O)NCCCC[C@H](NC(=O)c1ccccc1)C(=O)N1CCN(c2cccc(C)n2)CC1 [N-[(5S)-6-[4-(6-methylpyridin-2-yl)piperazin-1-yl]-6-oxo-5-(phenylformamido)hexyl]prop-2-enamide] |
| 1000 to 100000 | C=CC(=O)NCCCC[C@H](NC(=O)OCc1ccccc1)C(=O)N(CC)CC [benzyl N-[(1S)-1-(diethylcarbamoyl)-5-(prop-2-enamido)pentyl]carbamate] |
| 1000 to 100000 | C=CC(=O)NCCCC[C@H](NC(=O)OCc1ccccc1)C(=O)N(C)C [benzyl N-[(1S)-1-(dimethylcarbamoyl)-5-(prop-2-enamido)pentyl]carbamate] |
| 1000 to 100000 | C=CC(=O)NCCCC[C@H](NC(=O)OCc1ccccc1)C(=O)NC1C2CC3CC(C2)CC1C3 (stereo partly drawn) [benzyl N-[(1S)-1-[(adamantan-2-yl)carbamoyl]-5-(prop-2-enamido)pentyl]carbamate] |
| 100 to 1000 | C=CC(=O)NCCCC[C@H](NC(=O)OCc1ccccc1)C(=O)N1Cc2ccccc2C1 [benzyl N-[(2S)-1-(2,3-dihydro-1H-isoindol-2-yl)-1-oxo-6-(prop-2-enamido)hexan-2-yl]carbamate] |
| 100 to 1000 | C=CC(=O)NCCCC[C@H](NC(=O)OCc1ccccc1)C(=O)N1CCC(F)(F)CC1 [benzyl N-[(2S)-1-(4,4-difluoropiperidin-1-yl)-1-oxo-6-(prop-2-enamido)hexan-2-yl]carbamate] |
| 100 to 1000 | C=CC(=O)NCCCC[C@H](NC(=O)OCc1ccccc1)C(=O)N1CCN(C(=O)C2CC2)CC1 [benzyl N-[(2S)-1-(4-cyclopropanecarbonylpiperazin-1-yl)-1-oxo-6-(prop-2-enamido)hexan-2-yl]carbamate] |
| 100 to 1000 | C=CC(=O)NCCCC[C@H](NC(=O)OCc1ccccc1)C(=O)N1CCN(C)CC1 [benzyl N-[(2S)-1-(4-methylpiperazin-1-yl)-1-oxo-6-(prop-2-enamido)hexan-2-yl]carbamate] |
| 100 to 1000 | C=CC(=O)NCCCC[C@H](NC(=O)OCc1ccccc1)C(=O)N1CCCCCC1 [benzyl N-[(2S)-1-(azepan-1-yl)-1-oxo-6-(prop-2-enamido)hexan-2-yl]carbamate] |
| 1000 to 100000 | C=CC(=O)NCCCC[C@H](NC(=O)OCc1ccccc1)C(=O)N1CCC1 [benzyl N-[(2S)-1-(azetidin-1-yl)-1-oxo-6-(prop-2-enamido)hexan-2-yl]carbamate] |
| 100 to 1000 | C=CC(=O)NCCCC[C@H](NC(=O)OCc1ccccc1)C(=O)N1CCOCC1 [benzyl N-[(2S)-1-(morpholin-4-yl)-1-oxo-6-(prop-2-enamido)hexan-2-yl]carbamate] |
| 100 to 1000 | C=CC(=O)NCCCC[C@H](NC(=O)OCc1ccccc1)C(=O)N1CCN(c2ncccc2C)CC1 [benzyl N-[(2S)-1-[4-(3-methylpyridin-2-yl)piperazin-1-yl]-1-oxo-6-(prop-2-enamido)hexan-2-yl]carbamate] |
| < 100 | C=CC(=O)NCCCC[C@H](NC(=O)OCc1ccccc1)C(=O)N1CCN(c2cc(Cl)ccc2OC)CC1 [benzyl N-[(2S)-1-[4-(5-chloro-2-methoxyphenyl)piperazin-1-yl]-1-oxo-6-(prop-2-enamido)hexan-2-yl]carbamate] |

| SMILES | IC50 [nM] |
| --- | --- |
| C=CC(=O)N1CCC(CC(NC(=O)OC(C)(C)C)C(=O)O)CC1 (centres unmarked) [2-{[(tert-butoxy)carbonyl]amino}-3-[1-(prop-2-enoyl)piperidin-4-yl]propanoic acid] | 1000 to 100000 |
